# Test results published in PubChem BioAssay (NCI).
#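 Step 1: Grow cells in 96-well plates. Step 2: Expose to compound for 48 hours at 5 concentrations. Step 3: Interpolate endpoints linearly; if unreached, use highest concentration. GI50 marks 50% less growth. Definition used: TGI = concentration required for complete inhibition of growth.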
# Tested on: UO-31 renal
# Experiment: DTP human tumour cell line panel, 48 h
SMILES,TGI [µM],GI50 [µM]
COC(=O)C(=O)CC(=O)c1cccc(OC)c1,> 100,–
CNCCn1c(=O)c2cc(OC)c(OC)cc2c2cnc3cc4c(cc3c21)OCO4,1.21,< 0.01
O=C(CCN1CCOCC1)Nc1cccc(-n2cc(-c3ccncc3)c(-c3ccc(Cl)c(O)c3)n2)c1,11,1.69
C=C(C)[C@@H]1CC[C@]2(C)[C@H](CC[C@@H]3[C@@H]([C@@](C)(O)CCC=C(C)C)CC[C@]32C)[C@@]1(C)CCC(=O)O,29.4,15.7
Cn1cc(S(=O)(=O)N2CCC3=Cc4c(cnn4-c4ccc(F)cc4)C[C@]3(C(=O)c3cc(C(F)(F)F)ccn3)C2)cn1,> 100,9.52
c1ccc(NCCSc2nc3ccccc3s2)cc1,> 100,–
Oc1ccc(Oc2cnc3ccccc3n2)cc1,> 100,66.6
Cc1ccc2occ/c(=N\Nc3ccccc3)c2c1,> 100,–
CC(=O)NC1CONC1=O (stereo not given),> 100,–
Oc1ccc(N=Nc2nccs2)c(O)c1,21.8,3.51
COc1ccc2c(c1)C(C)Cc1c(ncnc1-n1cnc3ccccc31)N2C (stereo not given),19.2,0.72
COc1ccc(-c2noc(N)c2-c2cc(OC)c3c(c2)OCO3)cc1,> 100,7.39
CC(Cl)CN1c2ccccc2Sc2ccc(Cl)cc21 (stereo not given),> 10,–
NCCCn1c2c(c3ccccc3c1=O)C(=O)c1ccccc1-2,16.5,0.248
O=C1c2ccccc2C(=O)c2c(NCCN=Cc3ccccc3O)cccc21,11,2.51
Oc1ccc(/C=C/c2cc(O)cc3c2C(c2cc(O)cc(O)c2)C(c2ccc(O)c(O)c2)O3)cc1 (stereo not given),> 100,–

SMILES,TGI [µM],GI50 [µM]
CC1(C)N=C(N)N=C(N)N1c1cccc(OCCOc2cccc([N+](=O)[O-])c2)c1,> 100,> 100
COc1ccc(/C=C/c2cnccn2)cc1OC,> 10,–
O=C(NC1CCCCC1)c1ccc(Nc2ncnc3c2cnn3-c2ccccc2)cc1,> 100,23.9
N#CC(C#N)=C1CCCOc2c1ccc1ccccc21,> 100,> 100
CCc1nc(Cl)c(Cl)c(Cl)n1,> 100,–
O=[N+]([O-])c1ccc(Sc2c3ccccc3nc3ccccc23)cn1,32.3,–
COc1cc2c3c(n(CCCN(C)CCO)c(=O)c2cc1OC)-c1cc2c(cc1C3=O)OCO2,> 57.9,3.41
N#Cc1c(-c2ccco2)cc(-c2ccc(N)cc2)[nH]c1=O,> 100,–
C=C1C(O)C2C(=C(C)C13CC3)C(=O)C(C)(C)C2OC (stereo not given),> 100,> 100
COc1cc(C(=O)O[C@H](C(N)=O)[C@]2(C)CO2)c2cccc(C)c2c1,0.33,0.0404
COc1ccc(-c2ccc(NNC(=O)c3ccc(F)cc3)nn2)cc1OC,> 100,31.7
C=C1C(=O)OC2C1CC(OC(C)=O)/C(C)=C/CCC1(C)OC21 (stereo not given),> 100,–
Cc1sc2c(c1C)C(c1ccc(Cl)cc1)=N[C@@H](CC(=O)Nc1ccc(OCCOCCOCCOCCNc3cccc4c3C(=O)N(C3CCC(=O)NC3=O)C4=O)cc1)c1nnc(C)n1-2 (stereo not given in full),> 100,0.28
COc1cc(/C=C/C(=O)C(C(=O)/C=C/c2ccc(OC(=O)CCNC34CC5CC(CC(C5)C3)C4)c(OC)c2)C(=O)CCNC23CC4CC(CC(C4)C2)C3)ccc1OC(=O)CCNC12CC3CC(CC(C3)C1)C2 (stereo not given),18.7,2.71
CC(=O)[CH-]C(=O)c1ccccc1.CC(=O)[CH-]C(=O)c1ccccc1.O=S(=O)([O-])c1cc([O-])c2c([O-])cc(S(=O)(=O)[O-])cc2c1.[Na+].[Ti+4],> 100,> 100
Cc1c2c(C(N)=O)nccc2c(C)c2c1c1ccccc1n2Cc1ccccc1,37.6,–

# Tested on: HCC-2998 colon
# Experiment: DTP human tumour cell line panel, 48 h
SMILES,GI50 [µM],TGI [µM]
COc1ccc(-c2nn(-c3cccc(Cl)c3)cc2-c2nc(N)[nH]c(=O)c2C#N)cc1,5.87,24.9
COC(=O)C(=O)CC(=O)c1cccc(OC)c1,–,> 100
COc1cc2c3c(n(CCCN(CCO)CCO)c(=O)c2cc1OC)-c1cc2c(cc1C3=O)OCO2,< 0.01,< 0.01
CNCCn1c(=O)c2cc(OC)c(OC)cc2c2cnc3cc4c(cc3c21)OCO4,0.0484,1.79
O=C(CCN1CCOCC1)Nc1cccc(-n2cc(-c3ccncc3)c(-c3ccc(Cl)c(O)c3)n2)c1,4.57,17.3
C=C(C)[C@@H]1CC[C@]2(C)[C@H](CC[C@@H]3[C@@H]([C@@](C)(O)CCC=C(C)C)CC[C@]32C)[C@@]1(C)CCC(=O)O,21.2,37.8
Cn1cc(S(=O)(=O)N2CCC3=Cc4c(cnn4-c4ccc(F)cc4)C[C@]3(C(=O)c3cc(C(F)(F)F)ccn3)C2)cn1,> 100,> 100
Oc1ccc(Oc2cnc3ccccc3n2)cc1,> 100,> 100
Cc1ccc2occ/c(=N\Nc3ccccc3)c2c1,–,> 100
Oc1ccc(N=Nc2nccs2)c(O)c1,3.92,15
COc1ccc2c(c1)C(C)Cc1c(ncnc1-n1cnc3ccccc31)N2C (stereo not given),0.922,10.4
COc1ccc(-c2noc(N)c2-c2cc(OC)c3c(c2)OCO3)cc1,3.68,> 33.9
CC(Cl)CN1c2ccccc2Sc2ccc(Cl)cc21 (stereo not given),–,> 10
NCCCn1c2c(c3ccccc3c1=O)C(=O)c1ccccc1-2,0.0684,1.01
O=C1c2ccccc2C(=O)c2c(NCCN=Cc3ccccc3O)cccc21,7.82,22.6
Oc1ccc(/C=C/c2cc(O)cc3c2C(c2cc(O)cc(O)c2)C(c2ccc(O)c(O)c2)O3)cc1 (stereo not given),–,57.4
CC1(C)N=C(N)N=C(N)N1c1cccc(OCCOc2cccc([N+](=O)[O-])c2)c1,2.81,> 100

SMILES,GI50 [µM],TGI [µM]
COc1ccc(/C=C/c2cnccn2)cc1OC,–,> 10
O=C(NC1CCCCC1)c1ccc(Nc2ncnc3c2cnn3-c2ccccc2)cc1,> 100,> 100
N#CC(C#N)=C1CCCOc2c1ccc1ccccc21,> 100,> 100
CCc1nc(Cl)c(Cl)c(Cl)n1,–,> 100
O=[N+]([O-])c1ccc(Sc2c3ccccc3nc3ccccc23)cn1,–,> 81.7
COc1cc2c3c(n(CCCN(C)CCO)c(=O)c2cc1OC)-c1cc2c(cc1C3=O)OCO2,7.05,> 52.1
C=CCn1c(SCC(=O)Nc2ccc(C(=O)/C=C/c3cc(OC)c(OC)c(OC)c3)cc2)nnc1-c1ccc(OC)cc1,0.175,0.379
N#Cc1c(-c2ccco2)cc(-c2ccc(N)cc2)[nH]c1=O,–,> 100
C=C1C(O)C2C(=C(C)C13CC3)C(=O)C(C)(C)C2OC (stereo not given),> 100,> 100
COc1cc(C(=O)O[C@H](C(N)=O)[C@]2(C)CO2)c2cccc(C)c2c1,0.0257,0.54
COc1ccc(-c2ccc(NNC(=O)c3ccc(F)cc3)nn2)cc1OC,> 100,> 100
C=C1C(=O)OC2C1CC(OC(C)=O)/C(C)=C/CCC1(C)OC21 (stereo not given),–,> 100
Cc1sc2c(c1C)C(c1ccc(Cl)cc1)=N[C@@H](CC(=O)Nc1ccc(OCCOCCOCCOCCNc3cccc4c3C(=O)N(C3CCC(=O)NC3=O)C4=O)cc1)c1nnc(C)n1-2 (stereo not given in full),0.0796,> 100
COc1cc(/C=C/C(=O)C(C(=O)/C=C/c2ccc(OC(=O)CCNC34CC5CC(CC(C5)C3)C4)c(OC)c2)C(=O)CCNC23CC4CC(CC(C4)C2)C3)ccc1OC(=O)CCNC12CC3CC(CC(C3)C1)C2 (stereo not given),1.93,3.84
CC(=O)[CH-]C(=O)c1ccccc1.CC(=O)[CH-]C(=O)c1ccccc1.O=S(=O)([O-])c1cc([O-])c2c([O-])cc(S(=O)(=O)[O-])cc2c1.[Na+].[Ti+4],> 100,> 100
Cc1cc(NCCCCNc2ccnc3cc(Cl)ccc23)nc(Nc2ccc(C(=O)N3CCCCC3)cc2)n1,1.82,4.13
Cc1c2c(C(N)=O)nccc2c(C)c2c1c1ccccc1n2Cc1ccccc1,–,73.1
